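Assay format: 96-well plates, 48-hour exposure. GI50 is the concentration that inhibits growth by half. Definition used: TGI = concentration required for complete inhibition of growth.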
Experiments:
Assay in all cases: growth of human tumour cells (NCI), 48 h
DMS 114 small cell lung = tested on: DMS 114 small cell lung
DMS 273 small cell lung = tested on: DMS 273 small cell lung
KM20L2 colon = tested on: KM20L2 colon
LXFL 529 NSCLC = tested on: LXFL 529 NSCLC
SNB-78 CNS = tested on: SNB-78 CNS
DLD-1 colon = tested on: DLD-1 colon
M19-MEL melanoma = tested on: M19-MEL melanoma
HOP-18 NSCLC = tested on: HOP-18 NSCLC
XF 498 CNS = tested on: XF 498 CNS
RXF-631 renal = tested on: RXF-631 renal

CC1=NN(c2ccccc2)C(=O)C1C(=O)C(=O)Nc1ccc(C)cc1C (stereo unspecified)
TGI (DMS 114 small cell lung): > 100 µM | TGI (DMS 273 small cell lung): > 100 µM | TGI (KM20L2 colon): > 100 µM | TGI (LXFL 529 NSCLC): > 100 µM | TGI (SNB-78 CNS): > 100 µM | TGI (DLD-1 colon): > 100 µM | TGI (M19-MEL melanoma): > 100 µM | TGI (HOP-18 NSCLC): > 100 µM

COC1=CC(=O)C2[C@H]3Cc4ccccc4[C@H]3C2(C)C1=O (stereo partly specified)
TGI (XF 498 CNS): > 100 µM | TGI (DMS 273 small cell lung): > 100 µM | TGI (RXF-631 renal): > 100 µM | TGI (KM20L2 colon): > 100 µM | TGI (LXFL 529 NSCLC): > 100 µM | TGI (SNB-78 CNS): > 100 µM | TGI (DLD-1 colon): > 100 µM | TGI (M19-MEL melanoma): > 100 µM

O=C1CSc2ccncc2N1
TGI (XF 498 CNS): > 100 µM | TGI (DMS 114 small cell lung): > 100 µM | TGI (DMS 273 small cell lung): > 100 µM | TGI (KM20L2 colon): > 100 µM | TGI (LXFL 529 NSCLC): > 100 µM | TGI (DLD-1 colon): > 100 µM | TGI (M19-MEL melanoma): > 100 µM

COC(=O)c1c/c(=N\NC(=O)CC(=O)Nc2ccc(C)cc2)c2ccccc2o1
TGI (XF 498 CNS): > 100 µM | TGI (DMS 114 small cell lung): > 100 µM | TGI (DMS 273 small cell lung): > 100 µM | TGI (KM20L2 colon): > 100 µM | TGI (LXFL 529 NSCLC): > 100 µM | TGI (SNB-78 CNS): > 100 µM | TGI (DLD-1 colon): > 100 µM | TGI (M19-MEL melanoma): > 100 µM | TGI (HOP-18 NSCLC): > 100 µM

C=CCn1c(=S)sc2c(=O)[nH]cnc21
TGI (XF 498 CNS): > 100 µM | TGI (DMS 114 small cell lung): > 100 µM | TGI (DMS 273 small cell lung): > 100 µM | TGI (KM20L2 colon): > 100 µM | TGI (LXFL 529 NSCLC): > 100 µM | TGI (SNB-78 CNS): > 100 µM | TGI (DLD-1 colon): > 100 µM | TGI (M19-MEL melanoma): > 100 µM

COC(=O)[C@]1(C)CCC[C@]2(C)C3CC4OOC3(C=C4C(C)C)CCC21 (stereo partly specified)
TGI (DMS 114 small cell lung): 28 µM | TGI (DMS 273 small cell lung): 34.5 µM | TGI (KM20L2 colon): 32 µM | TGI (LXFL 529 NSCLC): 27.2 µM | TGI (SNB-78 CNS): 32.3 µM | TGI (DLD-1 colon): 29.1 µM

Cn1c(C2CC(C)(C)c3c2c2ccccc2n3C)cc2ccccc21 (stereo unspecified)
TGI (XF 498 CNS): > 304 µM | TGI (DMS 114 small cell lung): > 304 µM | TGI (DMS 273 small cell lung): > 304 µM | TGI (KM20L2 colon): > 304 µM | TGI (LXFL 529 NSCLC): > 304 µM | TGI (DLD-1 colon): > 304 µM | TGI (M19-MEL melanoma): > 304 µM

CCCN1CN(C(C(=O)N[C@@H]2C(=O)N3C(C(=O)O)=C(C)CSC23)c2ccccc2)CSC1=S (stereo partly specified)
TGI (DMS 273 small cell lung): > 100 µM | TGI (KM20L2 colon): > 100 µM | TGI (LXFL 529 NSCLC): > 100 µM | TGI (SNB-78 CNS): > 100 µM | TGI (DLD-1 colon): > 100 µM | TGI (M19-MEL melanoma): > 100 µM | TGI (HOP-18 NSCLC): > 100 µM

N.N.N.N.O=S(=O)([O-])[O-].[Co+3].[OH3+].[OH3+]
TGI (DMS 273 small cell lung): > 100 µM | TGI (KM20L2 colon): > 100 µM | GI50 (LXFL 529 NSCLC): > 100 µM | TGI (LXFL 529 NSCLC): > 100 µM | TGI (SNB-78 CNS): > 100 µM | TGI (DLD-1 colon): > 100 µM

From PubChem BioAssay (NCI)
